The results in this text go back to patent US20240360194A1, “New Peptides as Potent and Selective GIP Receptor Agonists” (Sanofi, priority 2021, published 2024).

Converted amounts (≈) assume the structure as drawn. Read-outs that look alike come from different tables or passages of the source.

Data set [1] deals with T1, human GLP-1 receptor (hGLP-1R) (Homo sapiens, UniProt P43220). The data set can be described thus: Binding assay, displacement of [125I]GLP-1 from HEK-293 membranes over-expressing GLP-1R (SPA). The note with it: [125I]GLP-1 displacement. As to the method:
(1) Preparation of Membranes from HEK-293 Cells Over-Expressing GIPR or GLP-1R
HEK-293 cells recombinantly over-expressing GIPR or GLP-1R were grown to 50% confluency, washed with warm 1×PBS (Gibco) and detached in HEPES/EDTA-buffer (100 mM HEPES pH 7.5, 5 mM EDTA). Cells were harvested by centrifugation at 4° C. and 3000×g and the pellets were stored at −80° C. until further processing.
After thawing on ice, pellets were resuspended in HEPES/EDTA-buffer and homogenized on ice for 1 min using Ultra-Turray T25. After subsequent sonification the cell debris was removed by centrifugation at 1000×g and 4° C. Supernatants were then ultra-centrifuged at 100000×g and 4° C. under vacuum for 30 min. Pellets were resuspended in HEPES/EDTA/NaCl-buffer (20 mM HEPES, 1 mM EDTA, 150 mM NaCl; add 1 Complete Mini Protease inhibitor cocktail to 10 ml buffer) and protein content was determined via BCA-Protein assay.
(2) Measurement of Binding Activity of Test Compounds to Human GIPR or GLP-1R

Data set [2] addresses T1, human GLP-1 receptor (hGLP-1R). The data set can be described thus: In vitro cellular cAMP assay for GLP-1 receptor efficacy (HEK-293 cell line over-expressing receptor). In kind it is cell-based. The note with it: HEK-293, 0.1% BSA. In general terms: cAMP levels reflect the balance of adenylyl cyclase and phosphodiesterase activity.
The target in data set [3] is T2, human GIP receptor (hGIPR) (Homo sapiens, UniProt P48546).
T2 sequence (P48546 22-466): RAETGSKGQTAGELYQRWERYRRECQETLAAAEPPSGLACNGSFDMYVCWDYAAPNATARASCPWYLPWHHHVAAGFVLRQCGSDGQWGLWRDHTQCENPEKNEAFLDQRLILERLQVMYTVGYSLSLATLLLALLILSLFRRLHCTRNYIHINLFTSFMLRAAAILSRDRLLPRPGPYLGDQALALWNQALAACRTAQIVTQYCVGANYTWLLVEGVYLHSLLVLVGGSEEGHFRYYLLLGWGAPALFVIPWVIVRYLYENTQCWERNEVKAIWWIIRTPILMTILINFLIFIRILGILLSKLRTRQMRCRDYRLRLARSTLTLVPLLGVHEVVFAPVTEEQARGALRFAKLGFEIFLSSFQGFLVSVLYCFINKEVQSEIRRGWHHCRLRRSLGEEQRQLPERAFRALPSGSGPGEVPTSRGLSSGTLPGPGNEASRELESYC
The experiment in a line: In vitro cellular cAMP assay for GIP receptor efficacy (HEK-293 cell line over-expressing receptor). Format: cell-based. The note with it: EC50 hGIPR 0.1% BSA, HEK-293, 0.1% BSA.

Data set [4] addresses T3, human GIP receptor (Homo sapiens, UniProt P48546).
T3 construct: human adipocytes endogenously expressing the human GIP receptor; host or cells: human preadipocytes (Lonza) differentiated to adipocytes
T3 sequence (P48546 22-466): T2 sequence (P48546 22-466)
The data set can be described thus: In vitro cellular cAMP assay for GIP receptor efficacy (human adipocytes). Format: cell-based. The note with it: for EC50: read-out: hGIPR EC50; for Emax: read-out: hGIPR Emax. An outline of the steps:
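Human preadipocytes expanded, then differentiated 6 days (insulin, dexamethasone, PPARγ agonist, 200 μM IBMX, L-thyroxine) before plating at 5000 cells/well. Test compound applied 30 min at room temperature; cAMP measured by HTRF after 1 h with lysis-buffer reagents, read as 665/620 nm fluorescence ratio.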

Data set [5] deals with T2, human GIP receptor (hGIPR). The experiment in a line: Binding assay, displacement of [125I]GIP from HEK-293 membranes over-expressing GIPR (SPA). The note with it: [125I]GIP displacement. An outline of the steps: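 Membranes from HEK-293 cells over-expressing human GIPR or GLP-1R, isolated by homogenising, sonicating and ultracentrifuging at 100000×g into HEPES/EDTA/NaCl buffer with protease inhibitors, were used for binding.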
(In a radioligand displacement assay an active substance lowers the binding of a labelled ligand.)

Data set [6] can be described thus: Solubility assessment (UHPLC-UV of supernatant, target 10 mg/ml). Format: physicochemical. An outline of the steps: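 Peptides at 10 mg/ml (purity-corrected) in 100 mM phosphate pH 7.4, optionally with 2.7 mg/ml m-cresol; gentle agitation 1 h, then 5° C. overnight (24 h). Supernatant after 15 min centrifugation at 2500 RCF quantified by UHPLC-UV, with sequence-based extinction coefficients.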

Setting [7] is: 100 mM phosphate buffer pH 7.4 (solubility buffer system A), pH 7.4, Solubility buffer system A: 100 mM phosphate buffer pH 7.4, read-out: Soluble amount.

T1 sequence (P43220 24-463): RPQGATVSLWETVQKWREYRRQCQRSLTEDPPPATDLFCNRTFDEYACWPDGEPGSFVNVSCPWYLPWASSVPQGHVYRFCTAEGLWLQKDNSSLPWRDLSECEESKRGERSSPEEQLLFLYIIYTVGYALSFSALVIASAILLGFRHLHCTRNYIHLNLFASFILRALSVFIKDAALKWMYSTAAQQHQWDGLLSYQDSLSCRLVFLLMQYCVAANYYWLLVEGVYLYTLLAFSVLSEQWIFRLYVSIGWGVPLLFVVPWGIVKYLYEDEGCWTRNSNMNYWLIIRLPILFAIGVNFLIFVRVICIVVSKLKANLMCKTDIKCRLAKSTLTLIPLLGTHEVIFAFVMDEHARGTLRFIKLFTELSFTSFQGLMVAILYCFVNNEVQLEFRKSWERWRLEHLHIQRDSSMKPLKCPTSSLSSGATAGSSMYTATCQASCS

Regarding `CC[C@H](C)[C@H](NC(=O)[C@H](Cc1ccccc1)NC(=O)[C@H](CCC(=O)O)NC(=O)C(C)(C)NC(=O)[C@H](CCC(N)=O)NC(=O)[C@H](CCCCNC(=O)COCCOCCNC(=O)COCCOCCNC(=O)CC[C@H](NC(=O)CCCCCCCCCCCCCCCCC(=O)O)C(=O)O)NC(=O)[C@H](CCC(N)=O)NC(=O)[C@H](CCC(=O)O)NC(=O)[C@H](CCC(=O)O)NC(=O)[C@H](CC(C)C)NC(=O)C(C)(C)NC(=O)[C@@H](NC(=O)[C@H](CO)NC(=O)[C@H](CC(C)C)NC(=O)[C@H](CC(=O)O)NC(=O)[C@H](CO)NC(=O)[C@@H](NC(=O)[C@H](Cc1ccccc1)NC(=O)[C@@H](NC(=O)CNC(=O)[C@H](CCC(=O)O)NC(=O)C(C)(C)NC(=O)[C@@H](N)Cc1ccc(O)cc1)[C@@H](C)O)[C@@H](C)CC)[C@@H](C)CC)C(=O)N[C@@H](CCC(=O)O)C(=O)N[C@@H](Cc1c[nH]c2ccccc12)C(=O)N[C@@H](CC(C)C)C(=O)N[C@@H](CC(C)C)C(=O)N[C@@H](C)C(=O)N[C@@H](CCC(N)=O)C(=O)NCC(=O)N1CCC[C@H]1C(=O)N[C@@H](CO)C(=O)N[C@@H](CO)C(=O)NCC(=O)N[C@@H](CCC(=O)O)C(=O)N1CCC[C@H]1C(=O)N1CCC[C@H]1C(=O)N1CCC[C@H]1C(=O)N[C@@H](CO)C(N)=O` [SEQ ID NO: 38, H2N-Y-Aib-E-G-T-F-I-S-D-L-S-I-Aib-L-E-E-Q-K[{AEEA}2-gGlu-C18OH]-Q-Aib-E-F-I-E-W-L-L-A-Q-G-P-S-S-G-E-P-P-P-S-NH2], the IC50 (in general, the concentration that inhibits the measured activity by half) in data set [1] is 73000 pM; in data set [5], 200 pM. Also, the EC50 (commonly the concentration needed to bring the measured effect to its halfway point) in data set [2] is above 10000 pM; in data set [3] it was 53.1 pM; in data set [4], 400 pM. Moreover, the Emax (usually the size of the effect at its maximum, as opposed to the concentration needed) in data set [4] came out at 92%. In data set [6] (pH 7.4, Soluble amount), this compound came in with a solubility at 24 h above 9200 µg/mL.
As to `CC[C@H](C)[C@H](NC(=O)[C@H](Cc1ccccc1)NC(=O)[C@H](CCC(=O)O)NC(=O)[C@H](CCC(=O)O)NC(=O)[C@H](CCC(N)=O)NC(=O)[C@H](Cc1c[nH]cn1)NC(=O)[C@@H](NC(=O)[C@H](CCCNC(=N)N)NC(=O)[C@H](CC(=O)O)NC(=O)[C@H](CCCCNC(=O)COCCOCCNC(=O)COCCOCCNC(=O)CC[C@H](NC(=O)CCCCCCCCCCCCCCCCCCC(=O)O)C(=O)O)NC(=O)C(C)(C)NC(=O)[C@@H](NC(=O)[C@H](CO)NC(=O)[C@H](CC(C)C)NC(=O)[C@H](CC(=O)O)NC(=O)[C@H](CO)NC(=O)[C@@H](NC(=O)[C@H](Cc1ccccc1)NC(=O)[C@@H](NC(=O)CNC(=O)[C@H](CCC(=O)O)NC(=O)C(C)(C)NC(=O)[C@@H](N)Cc1ccc(O)cc1)[C@@H](C)O)[C@@H](C)CC)[C@@H](C)CC)[C@@H](C)CC)C(=O)N[C@@H](CCC(=O)O)C(=O)N[C@@H](Cc1c[nH]c2ccccc12)C(=O)N[C@@H](CC(C)C)C(=O)N[C@@H](CC(C)C)C(=O)N[C@@H](C)C(=O)N[C@@H](CCC(N)=O)C(=O)N[C@@H](CCCNC(=N)N)C(=O)NCC(N)=O` [SEQ ID NO: 5, H2N-Y-Aib-E-G-T-F-I-S-D-L-S-I-Aib-K[{AEEA}2-gGlu-C20OH]-D-R-I-H-Q-E-E-F-I-E-W-L-L-A-Q-R-G-NH2], the values for the concentration for half-maximal inhibition (IC50) in data set [1] and in data set [5] were 236000 pM and 700 pM, respectively. In addition, the results for the EC50 in data set [2], in data set [3] and in data set [4] were above 10000 pM, 51.8 pM and 2100 pM, respectively. Further, the Emax in data set [4] stood at 114%. In addition, the solubility at 24 h in data set [6] (setting [7]) is 5200 µg/mL (≈ 1180 µM).
Take `CC[C@H](C)[C@H](NC(=O)[C@H](CCCNC(=N)N)NC(=O)[C@H](CC(=O)O)NC(=O)[C@H](CCCCNC(=O)COCCOCCNC(=O)COCCOCCNC(=O)CC[C@H](NC(=O)CC[C@H](NC(=O)CCCCCCCCCCCCCCCCCCC(=O)O)C(=O)O)C(=O)O)NC(=O)C(C)(C)NC(=O)[C@@H](NC(=O)[C@H](CO)NC(=O)[C@H](CC(C)C)NC(=O)[C@H](CC(=O)O)NC(=O)[C@H](CO)NC(=O)[C@@H](NC(=O)[C@H](Cc1ccccc1)NC(=O)[C@@H](NC(=O)CNC(=O)[C@H](CCC(=O)O)NC(=O)C(C)(C)NC(=O)[C@@H](N)Cc1ccc(O)cc1)[C@@H](C)O)[C@@H](C)CC)[C@@H](C)CC)C(=O)N[C@@H](Cc1c[nH]cn1)C(=O)N[C@@H](CCC(N)=O)C(=O)NC(C)(C)C(=O)N[C@@H](CCC(=O)O)C(=O)N[C@@H](Cc1ccccc1)C(=O)N[C@H](C(=O)N[C@@H](CCC(=O)O)C(=O)N[C@@H](Cc1c[nH]c2ccccc12)C(=O)N[C@@H](CC(C)C)C(=O)N[C@@H](CC(C)C)C(=O)N[C@@H](C)C(=O)N[C@@H](CCC(N)=O)C(=O)N[C@@H](CCCNC(=N)N)C(=O)NCC(N)=O)[C@@H](C)CC` [SEQ ID NO: 10, H2N-Y-Aib-E-G-T-F-I-S-D-L-S-I-Aib-K[{AEEA}2-{gGlu}2-C20OH]-D-R-I-H-Q-Aib-E-F-I-E-W-L-L-A-Q-R-G-NH2]: the results for the concentration for half-maximal inhibition (IC50) in data set [1] and in data set [5] were 183000 pM and 500 pM, respectively. The EC50 in data set [2] was above 10000 pM; in data set [3], 22.2 pM; in data set [4], 1200 pM. For the same compound, the Emax in data set [4] turned out to be 98%. Moreover, the solubility at 24 h in data set [6] (setting [7]) worked out at 7300 µg/mL (≈ 1620 µM); in data set [6] (pH 7.4, Solubility buffer system C: 100 mM phosphate buffer pH 7.4, 2.7 mg/ml m-cresol, read-out: Soluble amount), 7200 µg/mL (≈ 1600 µM).
With `CC[C@H](C)[C@H](NC(=O)[C@H](CCCNC(=N)N)NC(=O)[C@H](CC(=O)O)NC(=O)[C@H](CCCCNC(=O)COCCOCCNC(=O)COCCOCCNC(=O)CC[C@H](NC(=O)CCCCCCCCCCCCCCCCCCC(=O)O)C(=O)O)NC(=O)C(C)(C)NC(=O)[C@@H](NC(=O)[C@H](CO)NC(=O)[C@H](CC(C)C)NC(=O)[C@H](CC(=O)O)NC(=O)[C@H](CO)NC(=O)[C@@H](NC(=O)[C@H](Cc1ccccc1)NC(=O)[C@@H](NC(=O)CNC(=O)[C@H](CCC(=O)O)NC(=O)C(C)(C)NC(=O)[C@@H](N)Cc1ccc(O)cc1)[C@@H](C)O)[C@@H](C)CC)[C@@H](C)CC)C(=O)N[C@@H](Cc1c[nH]cn1)C(=O)N[C@@H](CCC(N)=O)C(=O)NC(C)(C)C(=O)N[C@@H](CCC(=O)O)C(=O)N[C@@H](Cc1ccccc1)C(=O)N[C@H](C(=O)N[C@@H](CCC(=O)O)C(=O)N[C@@H](Cc1c[nH]c2ccccc12)C(=O)N[C@@H](CC(C)C)C(=O)N[C@@H](CC(C)C)C(=O)N[C@@H](C)C(=O)N[C@@H](CCC(N)=O)C(=O)N[C@@H](CCCNC(=N)N)C(=O)NCC(N)=O)[C@@H](C)CC` [SEQ ID NO: 11, H2N-Y-Aib-E-G-T-F-I-S-D-L-S-I-Aib-K[{AEEA}2-gGlu-C20OH]-D-R-I-H-Q-Aib-E-F-I-E-W-L-L-A-Q-R-G-NH2], the IC50 amounted to 97000 pM in data set [1] and 200 pM in data set [5]. The EC50 in data set [2] was above 10000 pM; in data set [3], 19.2 pM; in data set [4] it was 1300 pM. Moreover, the Emax in data set [4] was found to be 113%. Moreover, the solubility at 24 h in data set [6] (setting [7]) turned out to be 10700 µg/mL (≈ 2450 µM).
